The record followed here is US20230150986A1, “ANTAGONISTS OF THE MUSCARINIC ACETYLCHOLINE RECEPTOR M4” (Vanderbilt University, priority 2019, published 2023).

Common to all, as to type: in vitro ADME
The target in one assay is T1, cytochrome P450 1A2 (Homo sapiens, UniProt P05177).
T1 construct: human liver microsomes (HLM; 0.1 mg/mL); from tissue; host or cells: human liver microsomes
T1 sequence (P05177 1-516): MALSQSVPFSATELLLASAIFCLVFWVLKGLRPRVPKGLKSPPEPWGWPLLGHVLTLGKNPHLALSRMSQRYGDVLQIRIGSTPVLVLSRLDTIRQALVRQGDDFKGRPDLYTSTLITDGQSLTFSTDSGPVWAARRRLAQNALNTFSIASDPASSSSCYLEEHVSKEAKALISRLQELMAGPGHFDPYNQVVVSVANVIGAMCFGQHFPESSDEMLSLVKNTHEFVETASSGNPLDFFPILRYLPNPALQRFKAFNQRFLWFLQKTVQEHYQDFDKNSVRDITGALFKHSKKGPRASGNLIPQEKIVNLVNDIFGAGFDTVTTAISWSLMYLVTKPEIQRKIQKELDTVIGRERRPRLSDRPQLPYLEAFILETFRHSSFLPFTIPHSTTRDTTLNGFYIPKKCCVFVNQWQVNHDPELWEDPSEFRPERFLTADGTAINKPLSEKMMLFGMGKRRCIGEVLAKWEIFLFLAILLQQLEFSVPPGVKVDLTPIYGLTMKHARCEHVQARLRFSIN
The assay can be described thus: Cytochrome P450 cocktail inhibition assay, 1A2 (phenacetin). Particulars: human liver microsomes 0.1 mg/mL; read-out: CYP Inhibition (1A2). As to the method: (§1) Solutions of substrates for cytochrome P450 enzymes (1A2: Phenacetin, 10 μM; 2C9: Diclofenac, 5 μM; 2D6: Dextromethorphan, 5 μM; 3A4: Midazolam, 2 μM; as a mixture), test compound (VU6028418; multiple concentrations), and the positive control for pan-P450 inhibition (miconazole; multiple concentrations) were prepared. A reaction mixture of assay buffer (100 mM Kpi at pH 7.4), human liver microsomes (HLM; 0.1 mg/mL), and the substrate mixture were aliquoted into a 96-deepwell plate. The test compound and control were then added to the plate such that the final concentration of test compound ranged from 0.1-30 μM (two replicates per concentration). The assay plate was vortexed (briefly) and pre-incubated at 37° C. in an orbital shaker for 15 minutes. The reaction was initiated by addition of NADPH (1 mM, final concentration) and continued for 8 min before it was quenched by acetonitrile (2× volume) containing an LCMS internal standard (carbamazepine, 50 nM). The plate was then centrifuged (4000 rcf, 4° C., 10 min), and the resulting supernatant was diluted with water (1× volume) for LC-MS/MS. Assay samples were analyzed via electrospray ionization on an AB Sciex API-4000 (Foster City, Calif.) triple-quadrupole mass spectrometer coupled to Agilent Technologies 1290 Infinity series pumps (Santa Clara, Calif.), and a Leap Technologies CTC PAL auto -sampler (Carrboro, NC). Analytes were separated by gradient elution on a Phenomenex Kinetex (C18 2.1×50 mm 5 μm) column (Torrance, Calif.) thermostated at 40° C. The HPLC mobile phase A was 0.1% formic acid in water (pH unadjusted), and the mobile phase B was 0.1% formic acid in acetonitrile (pH unadjusted). […] The total run time was 2.5 min and the HPLC flow rate was 0.5 mL/min. The source temperature was set at 500° C. and mass spectral analyses were performed using multiple reaction monitoring (MRM) with mass transitions specific to each substrate's metabolite utilizing a Turbo-Ionspray® source in positive ionization mode (5.0 kV spray voltage). The test compound and control IC50 values for each enzyme were obtained by quantitating the inhibition of metabolite formation for each substrate. A 0 μM test compound (or control) conditions represented 100% enzymatic activity, and the effect of increasing test compound concentrations on enzymatic activity was then calculated from the % of control activity. Inhibition curves were fitted using XLfit 5.2.2 (four-parameter logistic model, equation 201) in order to calculate the concentration that produced half-maximal inhibition (IC50) of each enzyme.
For orientation: Microsomes from liver hold many membrane-bound enzymes, among them those of drug oxidation.

For a further assay, the target named is T2, cytochrome P450 3A4 (Homo sapiens, UniProt P08684).
T2 construct: human liver microsomes (HLM; 0.1 mg/mL); from tissue; host or cells: human liver microsomes
T2 sequence (P08684 whole entry): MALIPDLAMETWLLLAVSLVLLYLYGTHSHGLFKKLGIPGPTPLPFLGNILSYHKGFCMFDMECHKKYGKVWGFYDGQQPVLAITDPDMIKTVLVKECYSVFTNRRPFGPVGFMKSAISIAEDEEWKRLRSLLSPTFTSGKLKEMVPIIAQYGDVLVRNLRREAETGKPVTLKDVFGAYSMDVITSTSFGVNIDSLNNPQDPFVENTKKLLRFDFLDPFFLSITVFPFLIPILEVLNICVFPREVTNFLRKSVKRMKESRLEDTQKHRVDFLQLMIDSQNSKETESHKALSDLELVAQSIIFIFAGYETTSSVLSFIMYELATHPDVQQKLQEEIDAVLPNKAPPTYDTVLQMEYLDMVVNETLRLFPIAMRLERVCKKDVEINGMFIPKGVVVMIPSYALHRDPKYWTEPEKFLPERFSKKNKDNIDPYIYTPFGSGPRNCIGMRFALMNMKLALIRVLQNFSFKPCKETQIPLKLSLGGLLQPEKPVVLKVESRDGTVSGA
The assay can be described thus: Cytochrome P450 cocktail inhibition assay, 3A4 (midazolam). Particulars: human liver microsomes 0.1 mg/mL; read-out: CYP Inhibition (3A4). The procedure: as §1

A further assay has as its target T3, cytochrome P450 2D6 (Homo sapiens, UniProt P10635).
T3 construct: human liver microsomes (HLM; 0.1 mg/mL); from tissue; host or cells: human liver microsomes
Put plainly: Cytochrome P450 cocktail inhibition assay, 2D6 (dextromethorphan). Particulars: human liver microsomes 0.1 mg/mL; read-out: CYP Inhibition (2D6). As to the method:
as §1

T3 sequence (P10635 whole entry): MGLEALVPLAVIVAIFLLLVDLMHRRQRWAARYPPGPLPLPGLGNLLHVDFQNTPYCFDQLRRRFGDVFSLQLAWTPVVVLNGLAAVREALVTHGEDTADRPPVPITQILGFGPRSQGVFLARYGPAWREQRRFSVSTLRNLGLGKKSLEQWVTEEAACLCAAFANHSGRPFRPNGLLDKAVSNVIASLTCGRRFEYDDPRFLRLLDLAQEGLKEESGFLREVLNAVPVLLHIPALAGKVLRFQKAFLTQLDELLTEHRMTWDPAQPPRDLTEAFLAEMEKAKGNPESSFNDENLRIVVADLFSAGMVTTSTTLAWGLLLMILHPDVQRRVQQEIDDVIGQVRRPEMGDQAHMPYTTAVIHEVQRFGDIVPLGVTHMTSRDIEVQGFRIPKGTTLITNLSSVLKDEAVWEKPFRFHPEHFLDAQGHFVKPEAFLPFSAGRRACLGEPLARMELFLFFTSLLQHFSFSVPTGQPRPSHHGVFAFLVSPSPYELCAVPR

As for `Fc1cc(F)c(F)c(-c2ccc(N[C@H]3C[C@@H]4CN(CC5CCOCC5)C[C@@H]4C3)nn2)c1` [Compound 1, (3aR,5s,6aS)-2-((tetrahydro-2H-pyran-4-yl)methyl)-N-(6-(2,3,5-trifluorophenyl)pyridazin-3-yl)octahydrocyclopenta[c]pyrrol-5-amine], the IC50 on cytochrome P450 1A2, on cytochrome P450 3A4 and on cytochrome P450 2D6 was greater than 30 µM each time.

For `Fc1cc(F)c(F)c(-c2ccc(N[C@H]3C[C@@H]4CN(Cc5ccccn5)C[C@@H]4C3)nn2)c1` [Compound 2, (3aR,5s,6aS)-2-(pyridin-2-ylmethyl)-N-(6-(2,3,5-trifluorophenyl)pyridazin-3-yl)octahydrocyclopenta[c]pyrrol-5-amine], the IC50 was 22.6 µM at cytochrome P450 1A2, greater than 30 µM at cytochrome P450 3A4 and greater than 30 µM at cytochrome P450 2D6.
